These results are taken from PubChem BioAssay (NCI).

Test systems include A549 NSCLC; CCRF-CEM leukemia; HS 578T breast; LOX IMVI melanoma; MDA-MB-231 breast; NCI-H226 lung; NCI/ADR-RES ovarian; SF-295 CNS; SK-MEL-5 melanoma; UACC-62 melanoma.
Common to all, as to experiment: inhibition of tumour cell growth, NCI panel, 48 h

SMILES strings stand for the structures.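 Cells were grown in 96-well plates and exposed to each compound for 48 hours at five concentrations; endpoints were interpolated linearly between bracketing concentrations, or set to the highest concentration if not reached. Abbreviation: GI50, concentration required for 50% inhibition of growth. The concentration for full growth arrest is given as TGI.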 Where a SMILES comes first, the peptide text is derived from it. [ ]: non-standard residue; d: D form. Ac5c = NC1(C(=O)O)CCCC1

As to `CC(=O)[O-].CC(=O)[O-].[Pt+2].c1cscn1.c1cscn1`, the GI50 with A549 NSCLC was 45.1 µM; in the experiment with CCRF-CEM leukemia it was 54 µM; with HS 578T breast, more than 100 µM; in the experiment with LOX IMVI melanoma, 65.7 µM; in the experiment with MDA-MB-231 breast it was more than 100 µM; with NCI-H226 lung it was more than 100 µM. Also, the GI50 in the experiment on NCI/ADR-RES ovarian, in the experiment on SF-295 CNS, in the experiment with SK-MEL-5 melanoma and in the experiment on UACC-62 melanoma was more than 100 µM each time. The TGI with A549 NSCLC, with CCRF-CEM leukemia, with HS 578T breast, in the experiment with LOX IMVI melanoma, in the experiment with MDA-MB-231 breast and in the experiment on NCI-H226 lung was more than 100 µM in each case. The TGI with NCI/ADR-RES ovarian, in the experiment with SF-295 CNS, in the experiment on SK-MEL-5 melanoma and in the experiment with UACC-62 melanoma was more than 100 µM in each case.

For `COc1cc(OC)c(/C=C/S(=O)(=O)Cc2cnc(OC)c(N)c2)c(OC)c1`, the GI50 in the experiment on A549 NSCLC is less than 0.0263 µM; with CCRF-CEM leukemia it was less than 0.0204 µM; in the experiment with HS 578T breast, less than 0.0202 µM; in the experiment on LOX IMVI melanoma, less than 0.0233 µM; in the experiment on MDA-MB-231 breast, less than 0.0276 µM; in the experiment on NCI-H226 lung it was more than 40.1 µM. In addition, the GI50 in the experiment on NCI/ADR-RES ovarian was less than 0.01 µM; in the experiment on SF-295 CNS it was less than 0.0133 µM; in the experiment on SK-MEL-5 melanoma, less than 0.014 µM; with UACC-62 melanoma, less than 0.01 µM. Moreover, the TGI with A549 NSCLC, in the experiment with CCRF-CEM leukemia, in the experiment with HS 578T breast, with LOX IMVI melanoma, with MDA-MB-231 breast and with NCI-H226 lung was more than 100 µM each time. Moreover, the TGI in the experiment with NCI/ADR-RES ovarian was more than 100 µM; in the experiment with SF-295 CNS it was more than 100 µM; in the experiment on SK-MEL-5 melanoma, 0.721 µM; with UACC-62 melanoma, more than 100 µM.

In the case of `NC1(C(=O)NC2(C(=O)O)CCCC2)CCCC1` (H-[Ac5c]-[Ac5c]-OH), the TGI with A549 NSCLC, in the experiment on CCRF-CEM leukemia, in the experiment on HS 578T breast, in the experiment on LOX IMVI melanoma, in the experiment with MDA-MB-231 breast and with NCI-H226 lung was more than 100 µM in each case. Also, the TGI in the experiment with NCI/ADR-RES ovarian, with SF-295 CNS, in the experiment on SK-MEL-5 melanoma and with UACC-62 melanoma was more than 100 µM each time.

Turning to `CCOC(=O)c1cc(C#N)c(=O)n(/N=C(\C)c2ccncc2)c1O`, the GI50 in the experiment with A549 NSCLC, in the experiment with CCRF-CEM leukemia, in the experiment with HS 578T breast, in the experiment with LOX IMVI melanoma, with MDA-MB-231 breast and with NCI-H226 lung was more than 100 µM each time. The GI50 in the experiment with NCI/ADR-RES ovarian, with SF-295 CNS, in the experiment with SK-MEL-5 melanoma and with UACC-62 melanoma was more than 100 µM in each case. Moreover, the TGI in the experiment on A549 NSCLC, in the experiment with CCRF-CEM leukemia, in the experiment with HS 578T breast, in the experiment with LOX IMVI melanoma, in the experiment with MDA-MB-231 breast and in the experiment on NCI-H226 lung was more than 100 µM each time. Further, the TGI in the experiment with NCI/ADR-RES ovarian, with SF-295 CNS, in the experiment with SK-MEL-5 melanoma and in the experiment with UACC-62 melanoma was more than 100 µM in each case.
